Consider two molecules from patent US20140235820A1, “METHODS AND COMPOSITIONS FOR MODULATING THE Wnt PATHWAY” (Genentech, Inc., priority 2010, published 2014).

In one assay the test system is LRP6. The assay is described as follows: Competition binding between Dkk1 and other Wnt pathway inhibitors (preloaded Dkk1). More on the design: species or system human. As to conditions: Dkk1 100 nM preloaded, test ligand 100 nM. How it is done:
FIG. 8. Competition binding between Dkk1 and other Wnt pathway inhibitors. The indicated LRP6 construct was preloaded onto biosensor tips. Dkk1 (100 nM) (or buffer control) and the test ligand (100 nM) were loaded sequentially onto the LRP6 tips. (A) Dkk2 competition with Dkk1. (B) Sclerostin competition with Dkk1. Percent binding in the presence of Dkk1 is shown relative to buffer control.
(§1) Binding kinetics were measured by biolayer interferometry using an Octet Red instrument (ForteBio) as previously described (11). Streptavidin (SA) biosensors were loaded with biotinylated hLRP6 in 50 mMTris, pH 8, 300 mM NaCl, 5% (v/v) glycerol, and 0.05% (w/v) Triton X-100. The loaded biosensors were washed in the same buffer before carrying out association and dissociation measurements for the indicated times. The Kd of each interaction was determined using steady state-analysis through the Octet Red software v6.3. Each reported value represents an average of three or more experiments at different concentrations, with a fitted experimental curve for which the square of the correlation coefficient (R^2) is above 0.96.
To assess whether Dkk1, Dkk2, and sclerostin might bind to the same site on LRP6 E1, Dkk2 or sclerostin binding was measured in the presence of preloaded Dkk1 (100 nM). […]

Assay [1] addresses T1, human LRP6 construct E1E4 (amino acids A20-Q1253) (human, UniProt O75581 20-1253, biotinylated for biolayer interferometry).
T1 construct: range 20-1253; Expressed in Tni insect cells; tags not specified for this construct; also called LRP6 E1E4
T1 sequence (looked up): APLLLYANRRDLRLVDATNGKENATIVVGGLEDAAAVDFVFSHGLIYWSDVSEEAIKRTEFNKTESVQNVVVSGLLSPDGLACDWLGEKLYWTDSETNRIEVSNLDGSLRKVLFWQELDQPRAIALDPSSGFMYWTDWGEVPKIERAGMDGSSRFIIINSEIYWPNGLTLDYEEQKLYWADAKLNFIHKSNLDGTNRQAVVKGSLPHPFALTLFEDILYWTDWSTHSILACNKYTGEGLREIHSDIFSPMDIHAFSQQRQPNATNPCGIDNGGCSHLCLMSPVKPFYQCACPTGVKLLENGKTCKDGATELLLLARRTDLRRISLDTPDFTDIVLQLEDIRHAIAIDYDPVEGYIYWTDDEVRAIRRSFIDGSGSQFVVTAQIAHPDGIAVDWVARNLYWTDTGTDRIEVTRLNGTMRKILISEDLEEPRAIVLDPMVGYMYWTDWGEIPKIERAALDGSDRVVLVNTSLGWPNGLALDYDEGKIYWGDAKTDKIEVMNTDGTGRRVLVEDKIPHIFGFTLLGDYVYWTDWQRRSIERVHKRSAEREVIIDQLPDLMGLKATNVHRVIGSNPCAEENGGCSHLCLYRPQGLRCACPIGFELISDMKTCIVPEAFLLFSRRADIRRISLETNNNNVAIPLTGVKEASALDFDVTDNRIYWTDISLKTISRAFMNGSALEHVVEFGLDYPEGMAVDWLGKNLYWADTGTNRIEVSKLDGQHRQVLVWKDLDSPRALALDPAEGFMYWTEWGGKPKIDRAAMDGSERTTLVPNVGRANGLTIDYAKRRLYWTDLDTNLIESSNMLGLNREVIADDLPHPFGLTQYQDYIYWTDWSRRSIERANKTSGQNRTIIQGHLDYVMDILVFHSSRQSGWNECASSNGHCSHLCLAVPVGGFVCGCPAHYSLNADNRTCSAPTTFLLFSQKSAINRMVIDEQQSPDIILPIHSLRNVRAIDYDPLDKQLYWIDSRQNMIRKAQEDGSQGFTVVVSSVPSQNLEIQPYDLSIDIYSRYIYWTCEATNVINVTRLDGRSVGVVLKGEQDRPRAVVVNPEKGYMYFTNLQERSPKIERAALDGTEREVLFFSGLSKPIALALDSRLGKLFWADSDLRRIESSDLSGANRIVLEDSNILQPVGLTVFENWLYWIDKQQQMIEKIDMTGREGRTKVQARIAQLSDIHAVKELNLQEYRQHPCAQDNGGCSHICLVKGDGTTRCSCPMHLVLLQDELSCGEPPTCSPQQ
In words: BLI (FIG. 9B). How it is done: as §1, with “(R²)” for “(R^2)”

Turning to “sclerostin: Sclerostin protein, Wnt pathway inhibitor, expressed in insect cells (LPNAIGR)”, in the assay on LRP6, the “binding to LRP6 in the presence of preloaded Dkk1” value was “very strongly inhibited”.

B1: Dkk1 K211E (ligand, human, UniProt O94907 32-266, looked up)
chain: TLNSVLNSNAIKNLPPPLGGAAGHPGSAVSAAPGILYPGGNKYQTIDNYQPYPCAEDEECGTDEYCASPTRGGDAGVQICLACRKRRKRCMRHAMCCPGNYCKNGICVSSDQNHFRGEIEETITESFGNDHSTLDGYSRRTTLSSKMYHTKGQEGSVCLRSSDCASGLCCARHFWSKICEPVLKEGQVCTKHRRKGSHGLEIFQRCYCGEGLSCRIQKDHHQASNSSRLHTCQRH
notes: also called Dkk1 Lys211Glu
Consider B1, for which, in assay [1], the binding result is recorded as “binds”.
